{"source": "patent US10005767B2", "about": "“Compositions and methods for inhibition of the JAK pathway” (Rigel Pharmaceuticals, Inc., priority 2009, dated 2018)", "note": "Structures can show the parent of a compound that is named as a salt.", "data": [{"tested_on": "human primary T-cells, IL-2 stimulated proliferation (JAK-1 and JAK-3 dependent; reported as JAK3 activity)", "experiment": "Human primary T-cell proliferation stimulated by IL-2 (Example 3)", "assay_type": "cell-based", "settings": "Homo sapiens, T-cell, tested under conditions described in Example 3 (IL-2 stimulated human primary T-cell proliferation); read-out: ability to inhibit JAK3 activity, IC50 range (Table V)", "outline": "(§1)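 Peripheral-blood human T-cells pre-activated via TCR/CD28, IL-2-starved overnight, then cultured 72 h at 37 °C with compound in Yssel's medium containing IL-2 (80 U/mL in cell suspension). Proliferation read as viable-cell ATP by CellTiter-Glo luminescence; reduction versus control taken as JAK pathway inhibition.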", "units": {"IC50": "nM"}, "values": [{"smiles": "Cc1cnc(Nc2ccc(N3CCC(NC(=O)C4CC4)C3)nc2)nc1Nc1ccc2oc(=O)[nH]c2c1", "note": "(stereo not drawn) [II-101, N-(1-(5-(5-methyl-4-(2-oxo-2,3-dihydrobenzo[d]oxazol-5-ylamino)pyrimidin-2-ylamino)pyridin-2-yl)pyrrolidin-3-yl)cyclopropanecarboxamide]", "IC50": "< 500"}, {"smiles": "CSc1ccc(Nc2ncc(C)c(Nc3ccc4oc(=O)[nH]c4c3)n2)cc1C(F)(F)F", "note": "[Compound I-155, 5-[5-Methyl-2-(4-methylsulfanyl-3-trifluoromethyl-phenylamino)-pyrimidin-4-ylamino]-3H-benzooxazol-2-one]", "IC50": "< 500"}, {"smiles": "Cc1ccc(F)c(Nc2ncc(C)c(Nc3ccc4oc(=O)[nH]c4c3)n2)c1", "note": "[Compound I-515, 5-(2-(2-fluoro-5-methylphenylamino)-5-methylpyrimidin-4-ylamino)benzo[d]oxazol-2(3H)-one]", "IC50": "< 500"}, {"smiles": "Cc1cnc(Nc2ccc3c(c2)NC(=O)C3(C)C)nc1Nc1ccc2oc(=O)[nH]c2c1", "note": "[IV-26, 5-(2-(3,3-dimethyl-2-oxoindolin-6-ylamino)-5-methylpyrimidin-4-ylamino)benzo[d]oxazol-2(3H)-one]", "IC50": "< 500"}, {"smiles": "Cc1cnc(Nc2ccc(S(C)(=O)=O)nc2)nc1Nc1ccc2oc(=O)[nH]c2c1", "note": "[II-43, 5-[2-(6-Methanesulfonyl-pyridin-3-ylamino)-5-methyl-pyrimidin-4-ylamino]-3H-benzooxazol-2-one]", "IC50": "< 500"}, {"smiles": "COCCN1C(=O)C(C)(C)Oc2cc(Nc3ncc(C)c(Nc4ccc5oc(=O)[nH]c5c4)n3)cnc21", "note": "[IV-45, N2-[2,2-dimethyl-4-(2-methoxyethyl)-2H-pyrido[3,2-b][1,4]oxazin-3(4H)-one-7-yl]-5-methyl-N4-(2-oxo-2,3-dihydro-1,3-benzoxazol-5-yl)-2,4-pyrimidinediamine]", "IC50": "< 500"}, {"smiles": "Cc1cnc(Nc2ccc(N3CCC(NC(=O)OC(C)(C)C)C3)nc2)nc1Nc1ccc2oc(=O)[nH]c2c1", "note": "(stereo not drawn) [II-86, tert-butyl 1-(5-(5-methyl-4-(2-oxo-2,3-dihydrobenzo[d]oxazol-5-ylamino)pyrimidin-2-ylamino)pyridin-2-yl)pyrrolidin-3-ylcarbamate]", "IC50": "< 500"}, {"smiles": "Cc1cc(Nc2ncc(C)c(Nc3ccc4oc(=O)[nH]c4c3)n2)cc(C(F)F)c1", "note": "[Compound I-237, 5-(2-(3-(difluoromethyl)-5-methylphenylamino)-5-methylpyrimidin-4-ylamino)benzo[d]oxazol-2(3H)-one]", "IC50": "< 500"}, {"smiles": "Cc1cnc(Nc2cnc(N3CC4CN(CC5CC5)CC4C3)c(F)c2)nc1Nc1ccc2oc(=O)[nH]c2c1", "note": "(stereo not drawn) [II-52, 5-{2-[6-(5-Cyclopropylmethyl-hexahydro-pyrrolo[3,4-c]pyrrol-2-yl)-5-fluoro-pyridin-3-ylamino]-5-methyl-pyrimidin-4-ylamino}-3H-benzooxazol-2-one]", "IC50": "< 500"}, {"smiles": "COc1cc(CF)cc(Nc2ncc(C)c(Nc3ccc4oc(=O)[nH]c4c3)n2)c1", "note": "[Compound I-274, 5-(2-(3-(fluoromethyl)-5-methoxyphenylamino)-5-methylpyrimidin-4-ylamino)benzo[d]oxazol-2(3H)-one]", "IC50": "< 500"}, {"smiles": "Cc1cnc(Nc2ccc3c(c2)N(C)C(=O)CCC3)nc1Nc1ccc2oc(=O)[nH]c2c1", "note": "[IV-30, 5-(5-methyl-2-(1-methyl-2-oxo-2,3,4,5-tetrahydro-1H-benzo[b]azepin-8-ylamino)pyrimidin-4-ylamino)benzo[d]oxazol-2(3H)-one]", "IC50": "< 500"}, {"smiles": "Cc1cnc(Nc2ccc(OC(F)(F)F)cc2)nc1Nc1ccc2oc(=O)[nH]c2c1", "note": "[Compound I-108, N4-(benzoxazolin-2-on-5-yl)-N2-(4-trifluoromethoxyphenyl)-5-methylpyrimidine-2,4-diamine trifluoroacetate salt]", "IC50": "< 500"}, {"smiles": "COc1cc(Nc2ncc(C)c(Nc3ccc4oc(=O)[nH]c4c3)n2)c(F)cc1F", "note": "[Compound I-193, 5-[2-(2,4-Difluoro-5-methoxy-phenylamino)-5-methyl-pyrimidin-4-ylamino]-3H-benzooxazol-2-one]", "IC50": "500 to 5000"}, {"smiles": "Cc1cnc(Nc2ccc3c(c2)CCCC(=O)N3)nc1Nc1ccc2oc(=O)[nH]c2c1", "note": "[IV-31, 5-(5-methyl-2-(2-oxo-2,3,4,5-tetrahydro-1H-benzo[b]azepin-7-ylamino)pyrimidin-4-ylamino)benzo[d]oxazol-2(3H)-one]", "IC50": "< 500"}, {"smiles": "CCN(CC)C1CCN(C2CCCCc3ccc(Nc4ncc(C)c(Nc5ccc6oc(=O)[nH]c6c5)n4)cc32)C1", "note": "(stereo not drawn) [IV-13, 5-{2-[9-(3-Diethylamino-pyrrolidin-1-yl)-6,7,8,9-tetrahydro-5H-benzocyclohepten-2-ylamino]-5-methyl-pyrimidin-4-ylamino}-3H-benzooxazol-2-one]", "IC50": "500 to 5000"}]}, {"tested_on": "human primary T-cells, IL-2 stimulated proliferation (JAK-1 and JAK-3 dependent; reported as JAK3 activity)", "experiment": "Human primary T-cell proliferation stimulated by IL-2 (Example 3)", "assay_type": "cell-based", "settings": "tested under conditions described in Example 3 (IL-2 stimulated human primary T-cell proliferation); read-out: ability to inhibit JAK3 activity, IC50 range (Table V)", "outline": "as §1", "units": {"IC50": "nM"}, "values": [{"smiles": "Cc1cnc(Nc2ccc(OC(F)(F)F)c(F)c2)nc1Nc1ccc2oc(=O)[nH]c2c1", "note": "[Compound I-376, N2-(3-fluoro-4-trifluoromethoxy)phenyl-5-methyl-N4-(2-oxo-2,3-dihydro-1,3-benzoxazol-5-yl)-2,4-pyrimidinediamine]", "IC50": "< 500"}, {"smiles": "Cc1cnc(Nc2ccc(N3CCN(C)CC3)c(C(N)=O)c2)nc1Nc1ccc2oc(=O)[nH]c2c1", "note": "[Compound I-316, N2-[3-aminocarbonyl-4-(4-methylpiperazino)]phenyl-5-methyl-N4-(2-oxo-2,3-dihydro-1,3-benzoxazol-5-yl)-2,4-pyrimidinediamine]", "IC50": "< 500"}, {"smiles": "Cc1cc(Nc2ncc(C)c(Nc3ccc4oc(=O)[nH]c4c3)n2)ccc1OC(F)F", "note": "[Compound I-387, N2-(4-difluoromethoxy-3-methyl)phenyl-5-methyl-N4-(2-oxo-2,3-dihydro-1,3-benzoxazol-5-yl)-2,4-pyrimidinediamine]", "IC50": "< 500"}, {"smiles": "O=c1[nH]c2cc(Nc3nc(Nc4cccc(N5CCOCC5)c4)ncc3F)ccc2o1", "note": "[Compound I-47, N4-(benzo[d]oxazol-2(3H)-on-5-yl)-N2-((3-morpholinyl)phenyl)-5-fluoropyrimidine-2,4-diamine]", "IC50": "< 500"}, {"smiles": "Cc1cnc(Nc2cccc(NS(C)(=O)=O)c2)nc1Nc1ccc2c(c1)oc(=O)n2C", "note": "[Compound I-73, N2-((3-methylsulfonylamino)phenyl)-N4-(3-methyl-2-oxo-2,3-dihydrobenzo[d]oxazol-6-yl)-5-methylpyrimidine-2,4-diamine]", "IC50": "< 500"}, {"smiles": "Cc1cnc(Nc2ccc(F)c(NS(C)(=O)=O)c2)nc1Nc1ccc2oc(=O)[nH]c2c1", "note": "[Compound I-87, N2-((4-fluoro-3-methylsulfonylamino)phenyl)-N4-(2-oxo-2,3-dihydrobenzo[d]oxazol-5-yl)-5-methylpyrimidine-2,4-diamine]", "IC50": "< 500"}, {"smiles": "CN(c1ccc(Nc2ncc(F)c(Nc3ccc4oc(=O)[nH]c4c3)n2)cc1)S(C)(=O)=O", "note": "[Compound I-96, N2-((4-methylsulfonyl-N-methylamino)phenyl)-N4-(2-oxo-2,3-dihydrobenzo[d]oxazol-5-yl)-5-fluoropyrimidine-2,4-diamine]", "IC50": "< 500"}, {"smiles": "Cc1cnc(Nc2ccc(CN3CCOCC3)cc2)nc1Nc1ccc2oc(=O)[nH]c2c1", "note": "[Compound I-382, 5-methyl-N2-(4-morpholinomethyl)phenyl-N4-(2-oxo-2,3-dihydro-1,3-benzoxazol-5-yl)-2,4-pyrimidinediamine]", "IC50": "< 500"}, {"smiles": "COC(=O)COc1cccc(Nc2ncc(C)c(Nc3ccc4oc(=O)[nH]c4c3)n2)c1", "note": "[Compound I-305, N2-(3-methoxycarbonylmethoxy)phenyl-5-methyl-N4-(2-oxo-2,3-dihydro-1,3-benzoxazol-5-yl)-2,4-pyrimidinediamine]", "IC50": "500 to 5000"}]}]}
